Experiments:
[1] = system: Glomerella lagenarium (Colletotrichum lagenarium); experiment: Glomerella lagenarium (Colletotrichum lagenarium) liquid culture / cucumber / preventative (anthracnose); type: cell-based; settings: Colletotrichum orbiculare; 20 ppm in the applied formulation; conidia in PDB nutrient broth, 24° C.; 3 to 4 days after application; compared to untreated; read-out: disease control (inhibition of growth measured photometrically)
In short: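 Test compound, diluted from DMSO, was mixed in microtiter wells with fungal conidia taken from cryogenic storage and suspended in PDB nutrient broth. After 3 to 4 days at 24 °C, photometric growth measurement gave antifungal activity as a percentage of the untreated control.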

[2] = system: Puccinia recondita f. sp. Tritici; experiment: Puccinia recondita f. sp. tritici / wheat / leaf disc curative (brown rust); type: in vivo; settings: foliar, 200 ppm in the applied formulation, wheat leaf segments cv. Kanzler, applied 1 day after inoculation, compared to untreated, assessed 6 to 8 days after application, read-out: disease control
In short: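 Curative leaf-segment test, cv. Kanzler: spore inoculation, dark storage 19° C/75% RH, compound spray 1 day post-inoculation. Then 12 h light/12 h dark, 19° C, 75% RH. Read-out: % disease control vs untreated check, 6–8 d after application.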

[3] = system: Puccinia recondita f. sp. Tritici; experiment: Puccinia recondita f. sp. tritici / wheat / leaf disc preventative (brown rust); type: in vivo; settings: foliar, 200 ppm in the applied formulation, wheat leaf segments cv. Kanzler, inoculated 1 day after application, compared to untreated, assessed 7 to 9 days after application, read-out: disease control
In short: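 Preventative leaf-segment test: compound at 200 ppm applied by spray to Kanzler wheat, with spore inoculation following after one day. Disease control relative to untreated check read 7 to 9 days post-application, incubation at 19° C., 75% relative humidity, 12 h light/12 h dark.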

Phakopsora pachyrhizi = Phakopsora pachyrhizi / soybean / leaf disc preventative (Asian soybean rust); type: in vivo; settings: foliar, 200 ppm in the applied formulation, soybean leaf disks, inoculated one day after application, compared to untreated, assessed 12 to 14 days after application, read-out: disease control
Procedure: Leaf disks or leaf segments of various plant species are cut from plants grown in a greenhouse. The cut leaf disks or segments are placed in multiwell plates (24-well format) onto water agar. The leaf disks are sprayed with a test solution before (preventative) or after (curative) inoculation. Compounds to be tested are prepared as DMSO solutions (max. 10 mg/ml) which are diluted to the appropriate concentration with 0.025% Tween20 just before spraying. The inoculated leaf disks or segments are incubated under defined conditions (temperature, relative humidity, light, etc.) according to the respective test system. A single evaluation of disease level is carried out 3 to 14 days after inoculation, depending on the pathosystem. Percent disease control relative to the untreated check leaf disks or segments is then calculated.
Soybean leaf disks are placed on water agar in multiwell plates (24-well format) and sprayed with the formulated test compound diluted in water. One day after application leaf discs are inoculated by spraying a spore suspension on the lower leaf surface. After an incubation period in a climate cabinet of 24-36 hours in darkness at 20° C. and 75% rh leaf disc are kept at 20° C. with 12 h light/day and 75% rh. The activity of a compound is assessed as percent disease control compared to untreated when an appropriate level of disease damage appears in untreated check leaf disks (12 to 14 days after application).
The following compounds at 200 ppm in the applied formulation give at least 80% disease control in this test when compared to untreated control leaf disks under the same conditions, which show extensive disease development.

CON(Cc1ccc(-c2noc(C(F)(F)F)n2)cc1)S(C)(=O)=O [Compound 1.5, N-methoxy-N-[[4-[5-(trifluoromethyl)-1,2,4-oxadiazol-3-yl]phenyl]methyl] methanesulfonamide]
inhibition at 20 ppm [1]: ≥ 80% | pest or weed control at 200 ppm [2]: ≥ 80% | melting point: 94 to 96 °C

CN(C)S(=O)(=O)N(Cc1ccc(-c2noc(C(F)(F)F)n2)cc1)C1CC1 [Compound 1.6, N-(dimethylsulfamoyl)-N-[[4-[5-(trifluoromethyl)-1,2,4-oxadiazol-3-yl]phenyl]methyl] cyclopropanamine]
pest or weed control at 200 ppm [3]: ≥ 80% | inhibition at 20 ppm [1]: ≥ 80% | melting point: 82 to 84 °C

O=S(=O)(N1CCOCC1)N(Cc1ccc(-c2noc(C(F)(F)F)n2)cc1)C1CC1 [Compound 1.7, N-cyclopropyl-N-[[4-[5-(trifluoromethyl)-1,2,4-oxadiazol-3-yl]phenyl]methyl] morpholine-4-sulfonamide]
pest or weed control at 200 ppm [3]: ≥ 80% | inhibition at 20 ppm [1]: ≥ 80% | melting point: 99 to 101 °C

CON(Cc1ccc(-c2noc(C(F)(F)F)n2)cc1)S(=O)(=O)C1CC1 [Compound 1.9, N-methoxy-N-[[4-[5-(trifluoromethyl)-1,2,4-oxadiazol-3-yl]phenyl]methyl] cyclopropanesulfonamide]
inhibition at 20 ppm [1]: ≥ 80% | melting point: 73 to 75 °C

CN(Cc1ccc(-c2noc(C(F)(F)F)n2)cc1)S(=O)(=O)Cc1ccccc1 [Compound 1.14, N-methyl-1-phenyl-N-[[4-[5-(trifluoromethyl)-1,2,4-oxadiazol-3-yl]phenyl]methyl] methanesulfonamide]
pest or weed control at 200 ppm [3]: ≥ 80% | inhibition at 20 ppm [1]: ≥ 80% | melting point: 109 to 111 °C

CCCNS(=O)(=O)N(Cc1ccc(-c2noc(C(F)(F)F)n2)cc1)C1CC1 [Compound 1.21, 3-[4-[[cyclopropyl (propylsulfamoyl)amino]methyl]phenyl]-5-(trifluoromethyl)-1,2,4-oxadiazole]
inhibition at 20 ppm [1]: ≥ 80% | melting point: 70 to 73 °C

CCCNS(=O)(=O)N(C)Cc1ccc(-c2noc(C(F)(F)F)n2)cc1 [Compound 1.23, 3-[4-[[methyl (propylsulfamoyl)amino]methyl]phenyl]-5-(trifluoromethyl)-1,2,4-oxadiazole]
pest or weed control at 200 ppm [3]: ≥ 80% | inhibition at 20 ppm [1]: ≥ 80% | pest or weed control at 200 ppm (Phakopsora pachyrhizi): ≥ 80% | pest or weed control at 200 ppm [2]: ≥ 80%

CON(Cc1ccc(-c2noc(C(F)(F)F)n2)c(F)c1)S(C)(=O)=O [Compound 1.101, N-[[3-fluoro-4-[5-(trifluoromethyl)-1,2,4-oxadiazol-3-yl]phenyl]methyl]-N-methoxy-methanesulfonamide]
inhibition at 20 ppm [1]: ≥ 80% | pest or weed control at 200 ppm (Phakopsora pachyrhizi): ≥ 80% | pest or weed control at 200 ppm [2]: ≥ 80%

CCN(Cc1ccc(-c2noc(C(F)(F)F)n2)c(F)c1)S(C)(=O)=O [Compound 1.102, N-ethyl-N-[[3-fluoro-4-[5-(trifluoromethyl)-1,2,4-oxadiazol-3-yl]phenyl]methyl] methanesulfonamide]
pest or weed control at 200 ppm [3]: ≥ 80% | inhibition at 20 ppm [1]: ≥ 80% | pest or weed control at 200 ppm (Phakopsora pachyrhizi): ≥ 80% | pest or weed control at 200 ppm [2]: ≥ 80%

O=S(=O)(NCc1ccc(-c2noc(C(F)(F)F)n2)cc1)c1ccccc1 [Compound 3.1, N-[[4-[5-(trifluoromethyl)-1,2,4-oxadiazol-3-yl]phenyl]methyl] benzenesulfonamide]
pest or weed control at 200 ppm [3]: ≥ 80% | inhibition at 20 ppm [1]: ≥ 80% | melting point: 116 to 124 °C

O=S(=O)(NCc1ccc(-c2noc(C(F)(F)F)n2)cc1)c1ccc(F)cc1F [Compound 3.5, 2,4-difluoro-N-[[4-[5-(trifluoromethyl)-1,2,4-oxadiazol-3-yl]phenyl]methyl] benzenesulfonamide]
pest or weed control at 200 ppm [3]: ≥ 80% | melting point: 112 to 115 °C

O=S(=O)(Cc1ccc(Cl)cc1F)NCc1ccc(-c2noc(C(F)(F)F)n2)cc1 [Compound 3.6, 1-(4-chloro-2-fluoro-phenyl)-N-[[4-[5-(trifluoromethyl)-1,2,4-oxadiazol-3-yl]phenyl]methyl] methanesulfonamide]
pest or weed control at 200 ppm [3]: ≥ 80% | melting point: 140 to 144 °C

O=S(=O)(NCc1ccc(-c2noc(C(F)(F)F)n2)cc1)N1CCOCC1 [Compound 3.8, N-[[4-[5-(trifluoromethyl)-1,2,4-oxadiazol-3-yl]phenyl]methyl] morpholine-4-sulfonamide]
pest or weed control at 200 ppm [3]: ≥ 80% | inhibition at 20 ppm [1]: ≥ 80% | pest or weed control at 200 ppm [2]: ≥ 80% | melting point: 108 to 110 °C

O=S(=O)(CC1CCOC1)NCc1ccc(-c2noc(C(F)(F)F)n2)c(F)c1 (centres unmarked) [Compound 3.20, N-[[3-fluoro-4-[5-(trifluoromethyl)-1,2,4-oxadiazol-3-yl]phenyl]methyl]-1-tetrahydrofuran-3-yl-methanesulfonamide]
pest or weed control at 200 ppm [3]: ≥ 80% | inhibition at 20 ppm [1]: ≥ 80% | pest or weed control at 200 ppm [2]: ≥ 80%

O=S(=O)(CC1CC1)NCc1ccc(-c2noc(C(F)(F)F)n2)c(F)c1 [Compound 3.21, 1-cyclopropyl-N-[[3-fluoro-4-[5-(trifluoromethyl)-1,2,4-oxadiazol-3-yl]phenyl]methyl] methanesulfonamide]
pest or weed control at 200 ppm [3]: ≥ 80% | inhibition at 20 ppm [1]: ≥ 80% | pest or weed control at 200 ppm [2]: ≥ 80%

Cn1ccc(S(=O)(=O)NCc2ccc(-c3noc(C(F)(F)F)n3)cc2F)n1 [Compound 3.24, N-[[2-fluoro-4-[5-(trifluoromethyl)-1,2,4-oxadiazol-3-yl]phenyl]methyl]-1-methyl-pyrazole-3-sulfonamide]
pest or weed control at 200 ppm [3]: ≥ 80% | inhibition at 20 ppm [1]: ≥ 80% | pest or weed control at 200 ppm [2]: ≥ 80%

O=S(=O)(NCc1ccc(-c2noc(C(F)(F)F)n2)cc1F)N1CCCC1 [Compound 3.27, N-[[2-fluoro-4-[5-(trifluoromethyl)-1,2,4-oxadiazol-3-yl]phenyl]methyl] pyrrolidine-1-sulfonamide]
pest or weed control at 200 ppm [3]: ≥ 80% | inhibition at 20 ppm [1]: ≥ 80% | pest or weed control at 200 ppm [2]: ≥ 80%

O=S(=O)(NCc1ccc(-c2noc(C(F)(F)F)n2)cc1F)C1CC1 [Compound 3.29, N-[[2-fluoro-4-[5-(trifluoromethyl)-1,2,4-oxadiazol-3-yl]phenyl]methyl] cyclopropanesulfon-amide]
pest or weed control at 200 ppm [3]: ≥ 80% | inhibition at 20 ppm [1]: ≥ 80% | pest or weed control at 200 ppm [2]: ≥ 80%

O=S(=O)(CC1CCOC1)NCc1ccc(-c2noc(C(F)(F)F)n2)cc1F (centres unmarked) [Compound 3.30, N-[[2-fluoro-4-[5-(trifluoromethyl)-1,2,4-oxadiazol-3-yl]phenyl]methyl]-1-tetrahydrofuran-3-yl-methanesulfonamide]
pest or weed control at 200 ppm [3]: ≥ 80% | inhibition at 20 ppm [1]: ≥ 80% | pest or weed control at 200 ppm [2]: ≥ 80%

O=S(=O)(CC1CC1)NCc1ccc(-c2noc(C(F)(F)F)n2)cc1F [Compound 3.31, 1-cyclopropyl-N-[[2-fluoro-4-[5-(trifluoromethyl)-1,2,4-oxadiazol-3-yl]phenyl]methyl] methanesulfonamide]
pest or weed control at 200 ppm [3]: ≥ 80% | inhibition at 20 ppm [1]: ≥ 80% | pest or weed control at 200 ppm [2]: ≥ 80%

O=S(=O)(Cc1ccccc1)Nc1ccc(-c2noc(C(F)(F)F)n2)cc1 [Compound 3.34, 1-phenyl-N-[4-[5-(trifluoromethyl)-1,2,4-oxadiazol-3-yl]phenyl]methane-sulfonamide]
inhibition at 20 ppm [1]: ≥ 80% | melting point: 125 to 135 °C

CCN(C(C)c1ccc(-c2noc(C(F)(F)F)n2)cc1)S(C)(=O)=O (centres unmarked) [Compound 4.1, N-ethyl-N-[1-[4-[5-(trifluoromethyl)-1,2,4-oxadiazol-3-yl]phenyl]ethyl] methanesulfonamide]
pest or weed control at 200 ppm [3]: ≥ 80% | inhibition at 20 ppm [1]: ≥ 80% | pest or weed control at 200 ppm (Phakopsora pachyrhizi): ≥ 80% | pest or weed control at 200 ppm [2]: ≥ 80%

CON(C(C)Cc1ccc(-c2noc(C(F)(F)F)n2)cc1)S(C)(=O)=O (centres unmarked) [Compound 4.2, N-methoxy-N-[1-methyl-2-[4-[5-(trifluoromethyl)-1,2,4-oxadiazol-3-yl]phenyl]ethyl] methanesulfonamide]
pest or weed control at 200 ppm [3]: ≥ 80% | inhibition at 20 ppm [1]: ≥ 80% | pest or weed control at 200 ppm (Phakopsora pachyrhizi): ≥ 80%
